Results on 13 compounds are retold here after patent US20160046618A1, “Cyclopropyl Fused Thiazin-2-Amine Compounds as Beta-Secretase Inhibitors and Methods of Use” (AMGEN INC., priority 2014, published 2016).

The term IC50 denotes the concentration at which inhibition is half-maximal.

The structures appear in SMILES notation. Read-outs that look alike come from different tables or passages of the source. A value given as a limit tells only on which side of the number the result lay.

In assay [1] the test system is Aβ40 in conditioned medium of cells stably expressing Amyloid Precursor Protein (APP). As to the kind of experiment: In vitro BACE-1 cell-based assay (Aβ40 sandwich ELISA). As to conditions: read-out: IC50 IP (μM) BACE1 cell. In outline: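 Read-out: time-resolved fluorescence (Streptavidin-Europium) of Aβ40 captured by pAb40 and detected with biotinylated 6E10 from supernatants of APP-stable cells. Cells were exposed to compound for 24 h, 10-point dose response, top dose 100 μM or 10 μM, 0.1% DMSO. IC50 fitted to percent of control.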

The target in the next assay is human recombinant BACE1 (Homo sapiens (Human), UniProt P56817). As to the kind of experiment: In vitro enzymatic BACE1 FRET assay. The class given is biochemical. To be noted: read-out: IC50 IP (μM) BACE1 enzyme. Summed up: (§1)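 Tris addition raises the pH to neutral to stop the reaction before fluorescence is measured at 590 nm emission with 488 nm excitation.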
Chain of human recombinant BACE1 (P56817 46-501): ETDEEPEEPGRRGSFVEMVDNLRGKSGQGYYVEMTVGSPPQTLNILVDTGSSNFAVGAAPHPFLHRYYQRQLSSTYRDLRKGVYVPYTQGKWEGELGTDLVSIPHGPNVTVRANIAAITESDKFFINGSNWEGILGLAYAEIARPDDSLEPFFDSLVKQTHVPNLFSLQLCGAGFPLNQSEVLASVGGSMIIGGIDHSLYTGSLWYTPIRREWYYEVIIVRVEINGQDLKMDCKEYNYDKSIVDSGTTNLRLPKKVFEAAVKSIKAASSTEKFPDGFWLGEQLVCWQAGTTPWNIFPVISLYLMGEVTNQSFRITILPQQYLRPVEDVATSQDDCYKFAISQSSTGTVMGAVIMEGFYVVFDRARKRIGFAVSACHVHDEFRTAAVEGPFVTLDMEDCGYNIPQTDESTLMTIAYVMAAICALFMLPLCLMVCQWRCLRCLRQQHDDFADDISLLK
Another assay has as its target human recombinant BACE2 (Homo sapiens (Human), UniProt Q9Y5Z0). Nature of the assay: In vitro enzymatic BACE2 FRET assay. As to conditions: read-out: IC50 IP (μM) BACE2 enzyme. It is filed as biochemical. In outline:
as §1

The next assay deals with Aβ 40 in rat brain. As to the kind of experiment: In vivo inhibition of beta-secretase: Aβ40 reduction in rat brain. As to conditions: 10 mpk, after 4 h. In outline: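 Rats were dosed by oral gavage at up to 100 mg/kg in 2% HPMC, 1% Tween80, pH 2.2, with vehicle-only controls. Supernatant Aβ40 was measured by ECL sandwich ELISA with biotinylated-4G8 capture and C-terminal Fab40 detection.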

The test system of the next assay is Aβ 40 in rat CSF. Nature of the assay: In vivo inhibition of beta-secretase: Aβ40 reduction in rat CSF. As to conditions: 10 mpk, after 4 h. In outline:
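Male Sprague Dawley rats (200 g) dosed orally in 2% HPMC, 1% Tween80, pH 2.2, at 3, 10 or 30 mg/kg; CSF and brain taken 4 h later. Brain homogenate centrifuged at 355,000 g; Aβ40 measured by ECL sandwich ELISA (4G8 capture, Abeta40 C-terminal Fab detection), as % reduction versus vehicle controls.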

A further assay concerns the target Recombinant Cat D (Homo sapiens (Human), UniProt P07339). Nature of the assay: In vitro enzymatic Cathepsin D (Cat D) FRET assay. The class given is biochemical. To be noted: read-out: IC50 IP (μM) CatD. Summed up:
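CHO-expressed enzyme; buffer 0.05 M citrate pH 3.5, 5 mM CHAPS, 10% DMSO final. Start with FRET substrate 20 nM, 1 h incubation, Tris stop (pH to neutral), fluorescence ex 500 nm/em 580 nm.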

Chain of human recombinant BACE2 (Q9Y5Z0 63-518): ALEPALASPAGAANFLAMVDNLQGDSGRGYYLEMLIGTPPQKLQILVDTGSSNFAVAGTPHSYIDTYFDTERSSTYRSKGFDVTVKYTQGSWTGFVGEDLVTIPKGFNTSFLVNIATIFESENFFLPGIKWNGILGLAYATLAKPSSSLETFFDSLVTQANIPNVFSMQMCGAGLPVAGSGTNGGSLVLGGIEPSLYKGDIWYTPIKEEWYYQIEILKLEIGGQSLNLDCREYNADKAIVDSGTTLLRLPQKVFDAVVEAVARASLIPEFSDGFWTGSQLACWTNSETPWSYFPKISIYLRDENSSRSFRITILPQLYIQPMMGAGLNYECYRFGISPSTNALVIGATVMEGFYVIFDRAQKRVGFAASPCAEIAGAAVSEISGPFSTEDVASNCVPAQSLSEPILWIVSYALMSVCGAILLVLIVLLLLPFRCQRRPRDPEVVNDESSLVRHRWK
Chain of Recombinant Cat D (P07339 65-412): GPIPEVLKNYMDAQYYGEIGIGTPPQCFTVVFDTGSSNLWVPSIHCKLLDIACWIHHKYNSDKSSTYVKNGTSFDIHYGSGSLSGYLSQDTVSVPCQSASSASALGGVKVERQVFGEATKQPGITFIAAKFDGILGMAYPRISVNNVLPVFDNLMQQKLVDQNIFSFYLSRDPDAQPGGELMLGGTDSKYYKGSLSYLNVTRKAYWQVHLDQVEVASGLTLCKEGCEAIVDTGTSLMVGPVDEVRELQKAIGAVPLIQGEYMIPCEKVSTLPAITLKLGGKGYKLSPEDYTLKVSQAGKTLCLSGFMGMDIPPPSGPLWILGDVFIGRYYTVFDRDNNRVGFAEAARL

With `Cc1cc(OCC(F)(F)F)cnc1C(=O)Nc1ccc(F)c([C@@]2(C)N=C(N)S[C@@]3(CF)C[C@H]32)c1` [Example 689, N-(3-((1S,5S,6S)-3-amino-1-(fluoromethyl)-5-methyl-2-thia-4-azabicyclo[4.1.0]hept-3-en-5-yl)-4-fluorophenyl)-3-methyl-5-(2,2,2-trifluoroethoxy)-2-pyridinecarboxamide], the IC50 was 0.0464 µM in assay [1], 0.0105 µM on human recombinant BACE1, 0.819 µM on human recombinant BACE2 and above 400 µM on Recombinant Cat D. In addition, the “% Aβ 40 reduction in rat brain at 10 mpk” value in the assay with Aβ 40 in rat brain is 10%. In the assay on Aβ 40 in rat CSF, the “% Aβ 40 reduction in rat CSF at 10 mpk” value is 38%.
`Cc1cc(OCC(F)(F)F)cnc1C(=O)Nc1cc(F)c(F)c([C@@]2(C)N=C(N)S[C@@]3(CF)C[C@H]32)c1` [Example 678, N-(3-((1S,5S,6S)-3-amino-1-(fluoromethyl)-5-methyl-2-thia-4-azabicyclo[4.1.0]hept-3-en-5-yl)-4,5-difluorophenyl)-3-methyl-5-(2,2,2-trifluoroethoxy)-2-pyridinecarboxamide]: the IC50 was 0.0286 µM in assay [1], 0.00612 µM at human recombinant BACE1, 0.579 µM on human recombinant BACE2 and 747 µM at Recombinant Cat D. For the same compound, in the assay on Aβ 40 in rat brain, the “% Aβ 40 reduction in rat brain at 10 mpk” value is given as 11%. The “% Aβ 40 reduction in rat CSF at 10 mpk” value in the assay on Aβ 40 in rat CSF is 40%.
With `C[C@]1(c2cc(Nc3nccc4nc(OCc5ncco5)cnc34)ccc2F)N=C(N)S[C@]2(CO)[C@H]1C2(F)F` [Example 705, ((1S,5S,6R)-3-amino-7,7-difluoro-5-(2-fluoro-5-((2-(1,3-oxazol-2-ylmethoxy)pyrido[3,4-b]pyrazin-5-yl)amino)phenyl)-5-methyl-2-thia-4-azabicyclo[4.1.0]hept-3-en-1-yl)methanol], the IC50 in assay [1] worked out at 0.0035 µM; on human recombinant BACE1, 0.00186 µM; on human recombinant BACE2, 0.0184 µM; at Recombinant Cat D it was 183 µM. Further, the “% Aβ 40 reduction in rat brain at 10 mpk” value in the assay on Aβ 40 in rat brain is on record as 1%. For the same compound, the “% Aβ 40 reduction in rat CSF at 10 mpk” value in the assay on Aβ 40 in rat CSF was determined as 28%.
For `C#CCOc1cnc(C(=O)Nc2cc(F)c(F)c([C@@]3(C)N=C(N)S[C@@]4(C#N)C[C@H]43)c2)cn1` [Example 924, N-(3-((1S,5S,6S)-3-amino-1-cyano-5-methyl-2-thia-4-azabicyclo[4.1.0]hept-3-en-5-yl)-4,5-difluorophenyl)-5-(2-propyn-1-yloxy)-2-pyrazinecarboxamide], the IC50 in assay [1] was 0.00138 µM; on human recombinant BACE1 it was 0.000249 µM; on human recombinant BACE2 it was below 0.00203 µM; at Recombinant Cat D, 17.8 µM. Moreover, the “% Aβ 40 reduction in rat brain at 10 mpk” value with Aβ 40 in rat brain is given as 76%. Further, the “% Aβ 40 reduction in rat CSF at 10 mpk” value in the assay on Aβ 40 in rat CSF was determined as 84%.
`C#CCOc1cnc(C(=O)Nc2ccc(F)c([C@@]3(C)N=C(N)S[C@@]4(COC)C[C@H]43)c2)cn1` [Example 834, N-(3-((1S,5S,6S)-3-amino-1-(methoxymethyl)-5-methyl-2-thia-4-azabicyclo[4.1.0]hept-3-en-5-yl)-4-fluorophenyl)-5-(2-propyn-1-yloxy)-2-pyrazinecarboxamide]: the IC50 in assay [1] was 0.000489 µM; at human recombinant BACE1, 0.000404 µM; at human recombinant BACE2 it was 0.0127 µM; at Recombinant Cat D, 318 µM. Besides, the “% Aβ 40 reduction in rat brain at 10 mpk” value in the assay with Aβ 40 in rat brain is listed as 83%. Besides, the “% Aβ 40 reduction in rat CSF at 10 mpk” value in the assay on Aβ 40 in rat CSF is recorded as 83%.
For the compound `C#CCOc1cnc2c(Nc3ccc(F)c([C@@]4(C)N=C(N)S[C@@]5(CF)C[C@H]54)c3)nccc2n1` [Example 823, N-(3-((1S,5S,6S)-3-amino-1-(fluoromethyl)-5-methyl-2-thia-4-azabicyclo[4.1.0]hept-3-en-5-yl)-4-fluorophenyl)-2-(2-propyn-1-yloxy)pyrido[3,4-b]pyrazin-5-amine], the IC50 in assay [1] was determined as 0.00186 µM; at human recombinant BACE1, 0.000791 µM; at human recombinant BACE2, 0.0296 µM; at Recombinant Cat D, 351 µM. Moreover, the “% Aβ 40 reduction in rat brain at 10 mpk” value with Aβ 40 in rat brain was found to be 78%. The “% Aβ 40 reduction in rat CSF at 10 mpk” value in the assay with Aβ 40 in rat CSF came to 78%.
On to `C#CCOc1cnc2c(Nc3cc(F)c(F)c([C@@]4(C)N=C(N)S[C@@]5(C(F)F)C[C@@H]45)c3)ncnc2c1` [Example 945, N-(3-((1S,5S,6S)-3-amino-1-(difluoromethyl)-5-methyl-2-thia-4-azabicyclo[4.1.0]hept-3-en-5-yl)-4,5-difluorophenyl)-7-(2-propyn-1-yloxy)pyrido[3,2-d]pyrimidin-4-amine], for which the IC50 in assay [1] came to 0.00709 µM; on human recombinant BACE1, 0.00105 µM; on human recombinant BACE2, 0.0661 µM; at Recombinant Cat D it was 381 µM. Further, the “% Aβ 40 reduction in rat brain at 10 mpk” value with Aβ 40 in rat brain is listed as 55%. Moreover, the “% Aβ 40 reduction in rat CSF at 10 mpk” value with Aβ 40 in rat CSF is 68%.
Consider `C#CCOc1cnc2c(Nc3cnc(F)c([C@@]4(C)N=C(N)S[C@@]5(CO)C[C@H]54)c3)nccc2n1` [Example 662, ((1S,5S,6S)-3-amino-5-(2-fluoro-5-((2-(2-propyn-1-yloxy)pyrido[3,4-b]pyrazin-5-yl)amino)-3-pyridinyl)-5-methyl-2-thia-4-azabicyclo[4.1.0]hept-3-en-1-yl)methanol], for which the IC50 in assay [1] was 0.00049 µM; at human recombinant BACE1, 0.000437 µM; on human recombinant BACE2 it was 0.0199 µM; on Recombinant Cat D it was 1060 µM. Further, the “% Aβ 40 reduction in rat brain at 10 mpk” value in the assay on Aβ 40 in rat brain amounted to 37%. In the assay with Aβ 40 in rat CSF, the “% Aβ 40 reduction in rat CSF at 10 mpk” value is 40%.
Consider `C#CCOc1cnc(C(=O)Nc2ccc(F)c([C@@]3(C)N=C(N)S[C@@]4(C(=O)NC5CC5)C[C@H]43)c2)cn1` [Example 795, (1S,5S,6S)-3-amino-N-cyclopropyl-5-(2-fluoro-5-(((5-(2-propyn-1-yloxy)-2-pyrazinyl)carbonyl)amino)phenyl)-5-methyl-2-thia-4-azabicyclo[4.1.0]hept-3-en-1-carboxamide], for which the IC50 in assay [1] was 0.000608 µM; on human recombinant BACE1 it was 0.0003 µM; on human recombinant BACE2 it was 0.0104 µM; at Recombinant Cat D it was 16.6 µM. Also, the “% Aβ 40 reduction in rat brain at 10 mpk” value with Aβ 40 in rat brain is on record as 70%. The “% Aβ 40 reduction in rat CSF at 10 mpk” value with Aβ 40 in rat CSF turned out to be 76%.
In the case of `CC(C)NC(=O)[C@]12C[C@H]1[C@@](C)(c1cc(NC(=O)c3cnc(OCC(F)(F)F)cn3)ccc1F)N=C(N)S2` [Example 976, (1S,5S,6S)-3-amino-5-(2-fluoro-5-(5-(2,2,2-trifluoroethoxy)pyrazine-2-carboxamido)phenyl)-N-isopropyl-5-methyl-2-thia-4-azabicyclo[4.1.0]hept-3-ene-1-carboxamide], the IC50 in assay [1] turned out to be 0.0101 µM; at human recombinant BACE1, 0.000527 µM; at human recombinant BACE2, 0.268 µM; at Recombinant Cat D, 260 µM. Also, the “% Aβ 40 reduction in rat brain at 10 mpk” value in the assay on Aβ 40 in rat brain is reported as 16%. In the assay with Aβ 40 in rat CSF, the “% Aβ 40 reduction in rat CSF at 10 mpk” value came out at 36%.
Take `C#CCOc1cnc2c(Nc3cc(F)c(F)c([C@@]4(C)N=C(N)S[C@@]5(C#N)C[C@H]54)c3)ncnc2c1` [Example 921, (1S,5S,6S)-3-amino-5-(2,3-difluoro-5-((7-(2-propyn-1-yloxy)pyrido[3,2-d]pyrimidin-4-yl)amino)phenyl)-5-methyl-2-thia-4-azabicyclo[4.1.0]hept-3-ene-1-carbonitrile]: the IC50 in assay [1] stood at 0.0206 µM; on human recombinant BACE1, 0.00198 µM; at human recombinant BACE2, 0.0627 µM; at Recombinant Cat D, 172 µM. The “% Aβ 40 reduction in rat brain at 10 mpk” value in the assay with Aβ 40 in rat brain amounted to 64%. The “% Aβ 40 reduction in rat CSF at 10 mpk” value in the assay on Aβ 40 in rat CSF was found to be 70%.
With `C#CCOc1cnc2c(Nc3ccc(F)c([C@@]4(C)N=C(N)S[C@]5(C(C)(C)O)[C@H]4C5(F)F)c3)nccc2n1` [Example 712, 2-((1S,5S,6R)-3-amino-7,7-difluoro-5-(2-fluoro-5-((2-(2-propyn-1-yloxy)pyrido[3,4-b]pyrazin-5-yl)amino)phenyl)-5-methyl-2-thia-4-azabicyclo[4.1.0]hept-3-en-1-yl)-2-propanol], the IC50 was 0.00904 µM in assay [1], 0.000782 µM on human recombinant BACE1, 0.0516 µM at human recombinant BACE2 and 476 µM on Recombinant Cat D. The “% Aβ 40 reduction in rat brain at 10 mpk” value in the assay with Aβ 40 in rat brain is listed as 32%. Further, the “% Aβ 40 reduction in rat CSF at 10 mpk” value in the assay with Aβ 40 in rat CSF worked out at 52%.
Take `C#CCOc1cnc2c(Nc3ccc(F)c([C@@]4(CF)N=C(N)S[C@@]5(CO)C[C@H]54)c3)nccc2c1` [Example 52, ((1S,5S,6S)-3-amino-5-(fluoromethyl)-5-(2-fluoro-5-((3-(2-propyn-1-yloxy)-1,7-naphthyridin-8-yl)amino)phenyl)-2-thia-4-azabicyclo[4.1.0]hept-3-en-1-yl)methanol]: the IC50 in assay [1] (BACE1 cell-based assay) is 0.00455 µM; on human recombinant BACE1 (BACE1 FRET enzyme assay), 0.0105 µM; at human recombinant BACE2 (BACE2 FRET enzyme assay), 0.23 µM; on Recombinant Cat D (Cathepsin D FRET enzyme assay) it was above 400 µM. Also, the “% Aβ 40 reduction in rat brain at 10 mpk” value in the assay with Aβ 40 in rat brain was found to be 0%. The “% Aβ 40 reduction in rat CSF at 10 mpk” value with Aβ 40 in rat CSF turned out to be 16%.
